Results published in US9981964B2 (Agency for Science, Technology and Research, priority 2013, dated 2018).

Test system: HEK293-STF3A cells
Test: STF3A assay (STF luciferase reporter in Wnt3A-expressing HEK293 cells)
Format: cell-based
Conditions: Homo sapiens, 24 h, 1 day of treatment
Text: HEK293-STF cell line was modified from Human embryonic kidney cell line HEK293 transfected with the STF reporter. HEK293-STF3A cell line was further modified from HEK293-STF cell line to express Wnt3A. This cell line was used to identify compounds that regulate either early or late signaling components of the Wnt pathway. These two cell lines were obtained from David Virshup's laboratory, Duke-NUS. L-Wnt3A (ATCC, #CRL-2647) cell line was used for providing Wnt3A conditioned media. The three cell lines were grown in DMEM with 10% FBS incubated in 37° C. with 5% CO2.
2×10^4 HEK293-STF3A cells in 75 μl culture media were seeded in each well of white 96 well plates (Greiner #655098) and incubated overnight at 37° C. 25 μl serially diluted compound was added to the cells to give final concentration of 50 μM to 1.5 nM. After 1 day of treatment, 100 μl of Steady-Glo Luciferase Assay reagent (#E2520, Promega) was added to each well and incubated for 10 minutes at room temperature. Luminescence was measured using Tecan Safire2 plate reader.

Row | Structure (SMILES) | IC50
1 | O=C(CN1CCCC2=C1C(=O)N(C1CC1)C2=O)Nc1ccc(-c2cncc(Cl)c2)nn1 [Compound 58, N-(6-(5-chloropyridin-3-yl)pyridazin-3-yl)-2-(6-cyclopropyl-5,7-dioxo-2,3,4,5,6,7-hexahydro-1H-pyrrolo[3,4-b]pyridin-1-yl)acetamide] | < 100 nM
2 | COc1cncc(-c2ccc(NC(=O)CN3CCCC4=C3C(=O)N(C3CC3)C4=O)nn2)c1 [Compound 153, 2-(6-cyclopropyl-5,7-dioxo-2,3,4,5,6,7-hexahydro-1H-pyrrolo[3,4-b]pyridin-1-yl)-N-(6-(5-methoxypyridin-3-yl)pyridazin-3-yl)acetamide] | < 100 nM
3 | O=C(CN1CCCC2=C1C(=O)N(C1CC1)C2=O)Nc1ccc(-c2ccc(F)nc2)cn1 [Compound 105, 2-(6-cyclopropyl-5,7-dioxo-2,3,4,5,6,7-hexahydro-1H-pyrrolo[3,4-b]pyridin-1-yl)-N-(6′-fluoro-[3,3′-bipyridin]-6-yl)acetamide] | < 100 nM
4 | Cc1cncc(-c2ccc(NC(=O)CN3CCCC4=C3C(=O)N(C)C4=O)nn2)c1 [Compound 41, 2-(6-methyl-5,7-dioxo-2,3,4,5,6,7-hexahydro-1H-pyrrolo[3,4-b]pyridin-1-yl)-N-(6-(5-methylpyridin-3-yl)pyridazin-3-yl)acetamide] | < 100 nM
5 | Cc1cncc(-c2ncc(NC(=O)CN3CCCC4=C3C(=O)N(C3CC3)C4=O)cc2C)c1 [Compound 68, 2-(6-cyclopropyl-5,7-dioxo-2,3,4,5,6,7-hexahydro-1H-pyrrolo[3,4-b]pyridin-1-yl)-N-(3,5′-dimethyl-[2,3′-bipyridin]-5-yl)acetamide] | < 100 nM
6 | Cc1cc(NC(=O)CN2CCCC3=C2C(=O)N(C)C3=O)ncc1-c1cccnc1 [Compound 114, 2-(6-methyl-5,7-dioxo-2,3,4,5,6,7-hexahydro-1H-pyrrolo[3,4-b]pyridin-1-yl)-N-(4-methyl-[3,3′-bipyridin]-6-yl)acetamide] | < 5000 nM
7 | CC(C(=O)Nc1ccc(-c2cncc(F)c2)cn1)N1CCCC2=C1C(=O)N(C)C2=O (stereo not shown) [Compound 139, N-(5′-fluoro-3,3′-bipyridin-6-yl)-2-(6-methyl-5,7-dioxo-2,3,4,5,6,7-hexahydro-1H-pyrrolo[3,4-b]pyridin-1-yl)propanamide] | < 100 nM
8 | Cc1cc(NC(=O)CN2CCCC3=C2C(=O)N(C2CC2)C3=O)cnc1-c1cccnc1 [Compound 133, 2-(6-cyclopropyl-5,7-dioxo-2,3,4,5,6,7-hexahydro-1H-pyrrolo[3,4-b]pyridin-1-yl)-N-(3-methyl-2,3′-bipyridin-5-yl)acetamide] | < 1000 nM
9 | O=C(CN1CCCC2=C1C(=O)N(C1CC1)C2=O)Nc1ccc(-c2cncc(F)c2)cn1 [Compound 106, 2-(6-cyclopropyl-5,7-dioxo-2,3,4,5,6,7-hexahydro-1H-pyrrolo[3,4-b]pyridin-1-yl)-N-(5′-fluoro-[3,3′-bipyridin]-6-yl)acetamide] | < 100 nM
10 | Cc1cncc(-c2ccc(NC(=O)CN3CCCC4=C3C(=O)N(C3CC3)C4=O)nn2)c1 [Compound 53, 2-(6-cyclopropyl-5,7-dioxo-2,3,4,5,6,7-hexahydro-1H-pyrrolo[3,4-b]pyridin-1-yl)-N-(6-(5-methylpyridin-3-yl)pyridazin-3-yl)acetamide] | < 100 nM
11 | CN1C(=O)C2=C(C1=O)N(CC(=O)Nc1ccc(-c3cncc(F)c3)cn1)CCC2 [Compound 143, N-(5′-fluoro-3,3′-bipyridin-6-yl)-2-(6-methyl-5,7-dioxo-2,3,4,5,6,7-hexahydro-1H-pyrrolo[3,4-b]pyridin-1-yl)acetamide] | < 100 nM
12 | CN1C(=O)C2=C(C1=O)N(CC(=O)Nc1ccc(-c3cncnc3)nc1)CCC2 [Compound 103, 2-(6-methyl-5,7-dioxo-2,3,4,5,6,7-hexahydro-1H-pyrrolo[3,4-b]pyridin-1-yl)-N-(6-(pyrimidin-5-yl)pyridin-3-yl)acetamide] | < 1000 nM
13 | Cc1cc(NC(=O)CN2CCCC3=C2C(=O)N(C2CC2)C3=O)ncc1-c1cccnc1 [Compound 120, 2-(6-cyclopropyl-5,7-dioxo-2,3,4,5,6,7-hexahydro-1H-pyrrolo[3,4-b]pyridin-1-yl)-N-(4-methyl-[3,3′-bipyridin]-6-yl)acetamide] | < 1000 nM
14 | Cc1ncccc1-c1ccc(NC(=O)CN2CCCC3=C2C(=O)N(C2CC2)C3=O)nc1 [Compound 110, 2-(6-cyclopropyl-5,7-dioxo-2,3,4,5,6,7-hexahydro-1H-pyrrolo[3,4-b]pyridin-1-yl)-N-(2′-methyl-[3,3′-bipyridin]-6-yl)acetamide] | < 1000 nM
15 | Cc1ncccc1-c1ccc(NC(=O)CN2CCCC3=C2C(=O)N(C)C3=O)nn1 [Compound 134, 2-(6-methyl-5,7-dioxo-2,3,4,5,6,7-hexahydro-1H-pyrrolo[3,4-b]pyridin-1-yl)-N-(6-(2-methylpyridin-3-yl)pyridazin-3-yl)acetamide] | < 5000 nM
16 | COc1ccc(-c2ccc(NC(=O)CN3CCCC4=C3C(=O)N(C3CC3)C4=O)cn2)cn1 [Compound 145, 2-(6-cyclopropyl-5,7-dioxo-2,3,4,5,6,7-hexahydro-1H-pyrrolo[3,4-b]pyridin-1-yl)-N-(6′-methoxy-2,3′-bipyridin-5-yl)acetamide] | < 100 nM

Row | Structure (SMILES) | IC50
17 | CN1C(=O)C2=C(C1=O)N(CC(=O)Nc1ccc(-c3ccccc3F)nn1)CCC2 [Compound 84, N-(6-(2-fluorophenyl)pyridazin-3-yl)-2-(6-methyl-5,7-dioxo-2,3,4,5,6,7-hexahydro-1H-pyrrolo[3,4-b]pyridin-1-yl)acetamide] | < 100 nM
18 | CN1C(=O)C2=C(C1=O)N(CC(=O)Nc1ccc(-c3cncc(F)c3)nc1)CCC2 [Compound 100, N-(5′-fluoro-[2,3′-bipyridin]-5-yl)-2-(6-methyl-5,7-dioxo-2,3,4,5,6,7-hexahydro-1H-pyrrolo[3,4-b]pyridin-1-yl)acetamide] | < 100 nM
19 | O=C(CN1CCCC2=C1C(=O)N(C1CC1)C2=O)Nc1cnc(-c2cncc(F)c2)cn1 [Compound 142, 2-(6-cyclopropyl-5,7-dioxo-2,3,4,5,6,7-hexahydro-1H-pyrrolo[3,4-b]pyridin-1-yl)-N-(5-(5-fluoropyridin-3-yl)pyrazin-2-yl)acetamide] | < 100 nM
20 | O=C(CN1CCCC2=C1C(=O)N(C1CC1)C2=O)Nc1ccc(-c2cncnc2)nc1 [Compound 102, 2-(6-cyclopropyl-5,7-dioxo-2,3,4,5,6,7-hexahydro-1H-pyrrolo[3,4-b]pyridin-1-yl)-N-(6-(pyrimidin-5-yl)pyridin-3-yl)acetamide] | < 100 nM
21 | CN1C(=O)C2=C(C1=O)N(CC(=O)Nc1cnc(-c3ccncc3)cn1)CCC2 [Compound 22, 2-(6-methyl-5,7-dioxo-2,3,4,5,6,7-hexahydro-1H-pyrrolo[3,4-b]pyridin-1-yl)-N-(5-(pyridin-4-yl)pyrazin-2-yl)acetamide] | > 10000 nM
22 | CN1C(=O)C2=C(C1=O)N(CC(=O)Nc1ccc(-c3cccc(F)c3)nn1)CCC2 [Compound 42, N-(6-(3-fluorophenyl)pyridazin-3-yl)-2-(6-methyl-5,7-dioxo-2,3,4,5,6,7-hexahydro-1H-pyrrolo[3,4-b]pyridin-1-yl)acetamide] | < 100 nM
23 | C[C@@H](C(=O)Nc1ccc(-c2ccccc2)nn1)N1CCCC2=C1C(=O)N(C)C2=O (single isomer, unassigned) [Compound 94] | < 100 nM
24 | CN1C(=O)C2=C(C1=O)N(CC(=O)Nc1ccc(-c3ccncc3)cc1)CCC2 [Compound 79, 2-(6-methyl-5,7-dioxo-2,3,4,5,6,7-hexahydro-1H-pyrrolo[3,4-b]pyridin-1-yl)-N-(4-(pyridin-4-yl)phenyl)acetamide] | < 100 nM
25 | Cc1ccc(-c2ccc(NC(=O)CN3CCCC4=C3C(=O)N(C)C4=O)nc2)cn1 [Compound 39, 2-(6-methyl-5,7-dioxo-2,3,4,5,6,7-hexahydro-1H-pyrrolo[3,4-b]pyridin-1-yl)-N-(6′-methyl-[3,3′-bipyridin]-6-yl)acetamide] | < 100 nM
26 | CN1C(=O)C2=C(C1=O)N(CC(=O)Nc1ccc(-c3cccnn3)cc1)CCC2 [Compound 47, 2-(6-methyl-5,7-dioxo-2,3,4,5,6,7-hexahydro-1H-pyrrolo[3,4-b]pyridin-1-yl)-N-(4-(pyridazin-3-yl)phenyl)acetamide] | < 1000 nM
27 | O=C(CN1CCCC2=C1C(=O)N(C1CC1)C2=O)Nc1ccc(-c2cccc(C(F)(F)F)c2)nn1 [Compound 55, 2-(6-cyclopropyl-5,7-dioxo-2,3,4,5,6,7-hexahydro-1H-pyrrolo[3,4-b]pyridin-1-yl)-N-(6-(3-(trifluoromethyl)phenyl)pyridazin-3-yl)acetamide] | < 100 nM
28 | Cc1cc(-c2ccccc2)ccc1NC(=O)CN1CCCC2=C1C(=O)N(C)C2=O [Compound 78, 2-(6-methyl-5,7-dioxo-2,3,4,5,6,7-hexahydro-1H-pyrrolo[3,4-b]pyridin-1-yl)-N-(3-methyl-[1,1′-biphenyl]-4-yl)acetamide] | > 10000 nM
29 | CN1C(=O)C2=C(C1=O)N(CC(=O)Nc1cnc(-c3cccnc3)cn1)CCC2 [Compound 21, 2-(6-methyl-5,7-dioxo-2,3,4,5,6,7-hexahydro-1H-pyrrolo[3,4-b]pyridin-1-yl)-N-(5-(pyridin-3-yl)pyrazin-2-yl)acetamide] | < 100 nM
30 | O=C(CN1CCCC2=C1C(=O)N(C1CC1)C2=O)Nc1cnc(-c2cccnc2)cn1 [Compound 26, 2-(6-cyclopropyl-5,7-dioxo-2,3,4,5,6,7-hexahydro-1H-pyrrolo[3,4-b]pyridin-1-yl)-N-(5-(pyridin-3-yl)pyrazin-2-yl)acetamide] | < 100 nM
31 | CN1C(=O)C2=C(C1=O)N(CC(=O)Nc1ccc(-c3cncnc3)cn1)CCC2 [Compound 101, 2-(6-methyl-5,7-dioxo-2,3,4,5,6,7-hexahydro-1H-pyrrolo[3,4-b]pyridin-1-yl)-N-(5-(pyrimidin-5-yl)pyridin-2-yl)acetamide] | < 100 nM
